Source: ChEMBL document CHEMBL4673347, “Discovery of new thieno[2,3-d]pyrimidine and thiazolo[5,4-d]pyrimidine derivatives as orally active phosphoinositide 3-kinase inhibitors” (Bioorg Med Chem, 2021)
Activity calls are given as the source filed them. The calls are words filed in the database; no cut-off is given here.

Experiments:
Mus musculus [1] = test: In vivo inhibition of PI3Kalpha in BALB/c mouse assessed as increase in plasma insulin level at 40 mg/kg, po measured after 24 hrs; assay type: functional, organism-based
[2] = Antiproliferative activity against human KATO III stomach cancer cell line cells assessed as reduction in cell viability incubated for 72 hrs measured after 4 hrs of MTT addition by MTT assay; assay type: functional
HGC-27 [3] = test: Induction of cell cycle arrest in human HGC-27 cells assessed as G0/G1 phase incubated for 24 hrs by propidium iodide staining based flow cytometry analysis; assay type: functional; settings: dose 20-500 nM
HGC-27 [4] = test: Antitumor activity against human HGC-27 cells xenografted in BALB/c mouse assessed as tumor growth inhibition administered orally for 25 days and measured on day 25; assay type: functional; settings: time 25.0 day
HGC-27 [5] = test: Inhibition of PI3K signalling in human HGC-27 cells assessed as reduction in AKT S473 phosphorylation incubated for 3 hrs by Western blot analysis; assay type: cell-based; settings: dose 20-1000 nM
[6] = Toxicity in BALB/c mouse xenografted with human HGC-27 cells assessed as body weight reduction at 40 mg/kg, po administered for 25 days and measured on day 25; assay type: organism-based; parameters: scale not given: the % may be the effect or the level left; settings: in vivo, 600 h, time 25 day
BGC-823 = test: Antiproliferative activity against human BGC-823 cells assessed as reduction in cell viability incubated for 72 hrs measured after 4 hrs of MTT addition by MTT assay; assay type: functional, cell-based
Mus musculus [7] = test: In vivo inhibition of PI3Kalpha in BALB/c mouse assessed as increase in plasma glucose level at 40 mg/kg, po measured after 30 mins; assay type: functional, organism-based
[8] = Volume of distribution at steady state in ICR mouse at 4 mg/kg, iv measured upto 24 hrs by LC-MS/MS analysis; assay type: ADME, organism-based; settings: in vivo, read-out: Vdss
[9] = molecular target: Phosphatidylinositol 4,5-bisphosphate 3-kinase catalytic subunit beta isoform (Homo sapiens, UniProt P42338); test: Inhibition of recombinant human PI3Kbeta using PIP2 as substrate by ADP-Glo reagent based assay
Chain of Phosphatidylinositol 4,5-bisphosphate 3-kinase catalytic subunit beta isoform (P42338 whole entry, canonical isoform): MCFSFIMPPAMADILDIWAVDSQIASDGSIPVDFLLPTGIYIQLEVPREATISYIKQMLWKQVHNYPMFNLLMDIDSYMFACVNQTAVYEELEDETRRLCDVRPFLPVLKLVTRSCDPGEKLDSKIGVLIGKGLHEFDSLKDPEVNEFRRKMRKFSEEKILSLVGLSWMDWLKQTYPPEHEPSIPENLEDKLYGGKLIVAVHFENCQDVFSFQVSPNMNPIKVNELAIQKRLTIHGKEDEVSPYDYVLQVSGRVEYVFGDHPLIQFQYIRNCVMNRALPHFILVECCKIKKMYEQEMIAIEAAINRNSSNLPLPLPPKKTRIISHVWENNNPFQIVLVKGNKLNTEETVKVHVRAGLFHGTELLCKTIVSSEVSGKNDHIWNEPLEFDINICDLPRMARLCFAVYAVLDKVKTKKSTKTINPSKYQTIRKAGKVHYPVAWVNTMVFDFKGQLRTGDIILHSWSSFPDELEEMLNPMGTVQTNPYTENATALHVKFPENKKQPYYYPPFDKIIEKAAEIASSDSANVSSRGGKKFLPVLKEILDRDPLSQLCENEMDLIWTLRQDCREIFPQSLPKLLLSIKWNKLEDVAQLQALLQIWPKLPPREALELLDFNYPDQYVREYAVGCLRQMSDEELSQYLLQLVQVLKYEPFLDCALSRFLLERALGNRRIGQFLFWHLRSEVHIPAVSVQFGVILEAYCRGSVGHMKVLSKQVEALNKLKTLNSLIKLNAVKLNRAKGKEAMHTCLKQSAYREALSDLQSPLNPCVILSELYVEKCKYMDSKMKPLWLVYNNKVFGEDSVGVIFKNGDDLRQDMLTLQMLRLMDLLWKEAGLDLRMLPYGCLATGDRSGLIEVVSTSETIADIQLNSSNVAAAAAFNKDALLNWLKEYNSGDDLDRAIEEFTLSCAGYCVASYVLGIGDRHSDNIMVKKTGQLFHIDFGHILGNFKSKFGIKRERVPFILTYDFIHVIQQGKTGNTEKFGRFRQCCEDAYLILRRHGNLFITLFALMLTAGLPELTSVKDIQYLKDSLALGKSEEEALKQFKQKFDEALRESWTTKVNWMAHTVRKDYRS

Mus musculus [10] = test: In vivo inhibition of PI3Kalpha in BALB/c mouse assessed as increase in plasma glucose level at 40 mg/kg, po measured after 24 hrs; assay type: functional, organism-based
SNU-638 = test: Antiproliferative activity against human SNU-638 cells assessed as reduction in cell viability incubated for 72 hrs measured after 4 hrs of MTT addition by MTT assay; assay type: functional, cell-based
HGC-27 [11] = test: Induction of apoptosis in human HGC-27 cells assessed as necrotic cells at 500 nM incubated for 24 hrs by annexin V-FITC and propidium iodide based staining based flow cytometry analysis (reference value: 1.95 %); assay type: functional
HGC-27 [12] = test: Antitumor activity against human HGC-27 cells xenografted in BALB/c mouse assessed as tumor growth inhibition at 20 mg/kg, po administered for 25 days and measured on day 25 relative to control; assay type: functional; settings: HGC-27, po, 600 h, time 25 day, read-out: TGI

IC50 (BGC-823) [nM]	Vd [8] [L/kg]	IC50 [9] [nM]	IC50 (SNU-638) [nM]	SMILES	inhibition (Mus musculus [1])	IC50 [2] [nM]	Activity (HGC-27 [3])	TGI (HGC-27 [4])	inhibition (HGC-27 [5])	Activity [6] [%]	inhibition (Mus musculus [7])	inhibition (Mus musculus [10])	Activity (HGC-27 [11]) [%]	inhibition in vivo at 20 mg/kg (HGC-27 [12]) [%]
1100	0.513	5.3	690	COc1ncc(-c2nc3c(N4CCOCC4)ncnc3s2)cc1NS(=O)(=O)c1ccc(F)cc1F	inactive	930	Dose-dependent effect	Dose-dependent effect	Dose-dependent effect	14.8	Active	inactive	0.23	75.5
4200	0.537	50	2400	COc1ncc(-c2cc3c(N4CCOCC4)ncnc3s2)cc1NS(=O)(=O)c1ccc(F)cc1F	inactive	4700	Dose-dependent effect		Dose-dependent effect		Active	inactive	0.26	
